Test results: patent US20240174662A1, “SMALL MOLECULE INHIBITORS OF SALT INDUCIBLE KINASES” (Janssen Biotech, Inc., priority 2021, published 2024)

Target: SIK2 (Homo sapiens (Human), UniProt Q9H0K1)
Assay: SIK2 Enzymatic Assay Version 2 (High ATP)
Format: biochemical
Conditions: 3 mM ATP and 200 μM HDAC5tide final, ADP-Glo Max luminescence
Procedure: All steps were performed at room temperature. Compounds were pre-plated onto an assay plate using an Echo acoustic dispenser (Labcyte, […] or […]) at 80 nL per well. Enzyme prepared in assay buffer at 6 nM (2× final concentration) was added at 4 μL per well using the Multidrop Combi (Thermo Fisher-used for all additions in this assay) to the assay plate, spun for 1 min at 1000 rpm (Allegra 6KR Beckman Coulter centrifuge), and incubated with compound for 30 minutes. […] ADP-Glo Max Reagent (prepared and aliquoted as per manufacturer instructions) was then added at 8 μL per well, spun and incubated for 2 hours. ADP-Glo Max Detection (prepared and aliquoted as per manufacturer instructions) was added at 8 μL per well to the assay plate, which was spun and incubated for 1 hour. The plate was then read on the Pherastar (BMG Labtech) using a luminescence read. Gain was set between 2200-2500.

SIK2, sequence (Q9H0K1 whole entry, species assumed): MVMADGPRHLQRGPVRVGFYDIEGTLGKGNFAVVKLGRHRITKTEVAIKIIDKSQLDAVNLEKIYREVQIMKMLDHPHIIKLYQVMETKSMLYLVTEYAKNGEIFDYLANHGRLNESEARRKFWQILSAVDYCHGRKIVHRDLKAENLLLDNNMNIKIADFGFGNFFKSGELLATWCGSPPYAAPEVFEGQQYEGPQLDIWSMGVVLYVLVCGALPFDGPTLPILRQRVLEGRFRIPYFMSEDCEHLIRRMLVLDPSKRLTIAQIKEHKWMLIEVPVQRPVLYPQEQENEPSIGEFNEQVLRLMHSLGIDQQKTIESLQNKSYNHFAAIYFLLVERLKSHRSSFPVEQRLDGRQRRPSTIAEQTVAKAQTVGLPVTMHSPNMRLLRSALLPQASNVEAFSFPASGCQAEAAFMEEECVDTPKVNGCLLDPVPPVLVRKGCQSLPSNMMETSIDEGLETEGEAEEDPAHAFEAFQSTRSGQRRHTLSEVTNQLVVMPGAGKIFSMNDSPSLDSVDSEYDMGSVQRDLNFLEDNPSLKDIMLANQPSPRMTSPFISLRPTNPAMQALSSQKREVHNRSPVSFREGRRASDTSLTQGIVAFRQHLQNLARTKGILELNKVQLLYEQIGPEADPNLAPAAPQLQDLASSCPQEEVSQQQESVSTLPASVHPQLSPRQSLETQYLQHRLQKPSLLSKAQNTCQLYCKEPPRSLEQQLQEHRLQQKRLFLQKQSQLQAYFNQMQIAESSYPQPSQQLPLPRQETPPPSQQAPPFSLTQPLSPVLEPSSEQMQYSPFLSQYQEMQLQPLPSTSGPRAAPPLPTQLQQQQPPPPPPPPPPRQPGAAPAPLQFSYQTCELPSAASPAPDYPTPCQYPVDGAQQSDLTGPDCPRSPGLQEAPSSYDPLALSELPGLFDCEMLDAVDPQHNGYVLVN

Row | Compound | IC50 [nM]
1 | Cc1cnc(Nc2cc3cc(-c4c(CO[C@H]5CN(C)C[C@@H]5C)cnn4C)ccn3n2)cn1 (stereo in doubt) [Example 469, (rac-trans)-5-[4-[(1,4-dimethylpyrrolidin-3-yl)oxymethyl]-2-methyl-pyrazol-3-yl]-N-(5-methylpyrazin-2-yl)pyrazolo[1,5-a]pyridin-2-amine] | 27.3
2 | CN1CCCC[C@@H]1COc1cnn(C)c1-c1ccn2nc(NC(=O)C3CC3)cc2c1 [Example 507, N-[5-[2-methyl-4-[[(2R)-1-methyl-2-piperidyl]methoxy]pyrazol-3-yl]pyrazolo[1,5-a]pyridin-2-yl]cyclopropanecarboxamide] | 1700
3 | Cn1ncc(OC[C@H]2CCN2)c1-c1ccn2nc(Nc3cncc(-n4cccn4)n3)cc2c1 [Example 291, 5-[4-[[(2R)-azetidin-2-yl]methoxy]-2-methyl-pyrazol-3-yl]-N-(6-pyrazol-1-ylpyrazin-2-yl)pyrazolo[1,5-a]pyridin-2-amine] | 31.2
4 | CCN1CC[C@@H]1COc1cnn(C)c1-c1ccn2nc(Nc3ncc(F)cn3)cc2c1 [Example 176, (R)-5-(4-((1-ethylazetidin-2-yl)methoxy)-1-methyl-1H-pyrazol-5-yl)-N-(5-fluoropyrimidin-2-yl)pyrazolo[1,5-a]pyridin-2-amine] | 72.7
5 | C[C@H]1[C@H](OCc2cnn(C)c2-c2ccn3nc(NC(=O)C4CC4)cc3c2)CN1C [Example 190, N-[5-[4-[[(2S,3R)-1,2-dimethylazetidin-3-yl]oxymethyl]-2-methyl-pyrazol-3-yl]pyrazolo[1,5-a]pyridin-2-yl]cyclopropanecarboxamide] | 26.5
6 | COC[C@@H]1C[C@H](Oc2noc(C)c2-c2ccn3nc(Nc4cc(C)c(C)nn4)cc3c2)CN1 [Example 390, N-(5,6-dimethylpyridazin-3-yl)-5-[3-[(3S,5S)-5-(methoxymethyl)pyrrolidin-3-yl]oxy-5-methyl-isoxazol-4-yl]pyrazolo[1,5-a]pyridin-2-amine] | 70.8
7 | Cc1onc(O[C@@H]2CCNC2)c1-c1ccn2nc(NC(=O)C3CC3)cc2c1 [Example 74, N-[5-[5-methyl-3-[(3R)-pyrrolidin-3-yl]oxy-isoxazol-4-yl]pyrazolo[1,5-a]pyridin-2-yl]cyclopropanecarboxamide] | 144
8 | C[C@@H]1C[C@H](Oc2cnn(C)c2-c2ccn3nc(NC(=O)C4CC4)cc3c2)CN1 [Example 233, N-[5-[2-methyl-4-[(3S,5R)-5-methylpyrrolidin-3-yl]oxy-pyrazol-3-yl]pyrazolo[1,5-a]pyridin-2-yl]cyclopropanecarboxamide] | 30.2
9 | Cn1ncc(OC[C@@H](O)C(F)(F)F)c1-c1ccn2nc(NC(=O)C3CC3)cc2c1 (single isomer, unassigned) [Example 401, (*R)—N-[5-[2-methyl-4-(3,3,3-trifluoro-2-hydroxy-propoxy)pyrazol-3-yl]pyrazolo[1,5-a]pyridin-2-yl]cyclopropanecarboxamide] | 107
10 | CC(C)N1CC[C@@H]1COc1cnn(C)c1-c1ccn2nc(NC(=O)C3CC3)cc2c1 [Example 53, N-[5-[4-[[(2R)-1-isopropylazetidin-2-yl]methoxy]-2-methyl-pyrazol-3-yl]pyrazolo[1,5-a]pyridin-2-yl]cyclopropanecarboxamide] | 68.3
11 | COC[C@@H]1C[C@H](Oc2noc(C)c2-c2ccn3nc(Nc4cc(C)c(C)nn4)cc3c2)CN1C [Example 391, N-(5,6-dimethylpyridazin-3-yl)-5-[3-[(3S,5S)-5-(methoxymethyl)-1-methyl-pyrrolidin-3-yl]oxy-5-methyl-isoxazol-4-yl]pyrazolo[1,5-a]pyridin-2-amine] | 94.1
12 | CCN1CC[C@@H]1COc1cnn(C)c1-c1ccn2nc(Nc3ncc(C)c(C)n3)cc2c1 [Example 165, N-(4,5-dimethylpyrimidin-2-yl)-5-[4-[[(2R)-1-ethylazetidin-2-yl]methoxy]-2-methyl-pyrazol-3-yl]pyrazolo[1,5-a]pyridin-2-amine] | 26.2
13 | Cc1onc(OC[C@H]2CCCN2C)c1-c1ccn2nc(NC(=O)C3CC3)cc2c1 [Example 388, N-[5-[5-methyl-3-[[(2R)-1-methylpyrrolidin-2-yl]methoxy]isoxazol-4-yl]pyrazolo[1,5-a]pyridin-2-yl]cyclopropanecarboxamide] | 146
14 | COc1cc(Nc2cc3cc(-c4c(OC[C@H]5CCN5C)cnn4C)ccn3n2)cc(OC)c1C(=O)NC(C)C [Example 37, N-isopropyl-2,6-dimethoxy-4-[[5-[2-methyl-4-[[(2R)-1-methylazetidin-2-yl]methoxy]pyrazol-3-yl]pyrazolo[1,5-a]pyridin-2-yl]amino]benzamide] | 42.9
15 | Cn1ncc(O[C@@H]2CCNC2)c1-c1ccn2nc(NC(=O)C3CC3)cc2c1 [Example 335, N-[5-[2-methyl-4-[(3R)-pyrrolidin-3-yl]oxy-pyrazol-3-yl]pyrazolo[1,5-a]pyridin-2-yl]cyclopropanecarboxamide] | 68.7
16 | Cn1ncc(OC[C@H]2CCN2C2CC2)c1-c1ccn2nc(NC(=O)C3CC3)cc2c1 [Example 347, N-[5-[4-[[(2R)-1-cyclopropylazetidin-2-yl]methoxy]-2-methyl-pyrazol-3-yl]pyrazolo[1,5-a]pyridin-2-yl]cyclopropanecarboxamide] | 68
17 | Cc1cc(Nc2cc3cc(-c4c(O[C@@H]5CN[C@H](C(F)F)C5)noc4C)ccn3n2)nc(C)n1 [Example 327, 5-[3-[(3S,5S)-5-(difluoromethyl)pyrrolidin-3-yl]oxy-5-methyl-isoxazol-4-yl]-N-(2,6-dimethylpyrimidin-4-yl)pyrazolo[1,5-a]pyridin-2-amine] | 42.8
18 | Cc1cc(Nc2cc3cc(-c4c(O[C@@H]5CCN[C@H]5C)cnn4C)ccn3n2)nc(C)n1 [Example 298, N-(2,6-dimethylpyrimidin-4-yl)-5-[2-methyl-4-[(2S,3R)-2-methylpyrrolidin-3-yl]oxy-pyrazol-3-yl]pyrazolo[1,5-a]pyridin-2-amine] | 39.2
19 | CCN1CC[C@H]1COc1cnn(C)c1-c1ccn2nc(NC(=O)C3CC3)cc2c1 [Example 47, N-[5-[4-[[(2S)-1-ethylazetidin-2-yl]methoxy]-2-methyl-pyrazol-3-yl]pyrazolo[1,5-a]pyridin-2-yl]cyclopropanecarboxamide] | 87.7

The next molecules have a lower IC50 than those just listed; values first:

Row | IC50 [nM] | Compound
20 | 7.5 | Cc1onc(O[C@H]2CNCC2F)c1-c1ccn2nc(NC(=O)C3CC3)cc2c1 (single isomer, unassigned) [Example 210, N-(5-(3-(((3*S,4*R)-4-fluoropyrrolidin-3-yl)oxy)-5-methylisoxazol-4-yl)pyrazolo[1,5-a]pyridin-2-yl)cyclopropanecarboxamide]
21 | 9.4 | C[C@@H](O)CN1CC[C@@H]1COc1cnn(C)c1-c1ccn2nc(NC(=O)C3CC3)cc2c1 [Example 252, N-[5-[4-[[(2R)-1-[(2R)-2-hydroxypropyl]azetidin-2-yl]methoxy]-2-methyl-pyrazol-3-yl]pyrazolo[1,5-a]pyridin-2-yl]cyclopropanecarboxamide]
22 | 12.4 | COC1(COc2cnn(C(F)F)c2-c2ccn3nc(Nc4cc(C)nc(C)n4)cc3c2)CCNC1 (racemic) [Example 100, (RS)-5-[2-(difluoromethyl)-4-[(3-methoxypyrrolidin-3-yl)methoxy]pyrazol-3-yl]-N-(2,6-dimethylpyrimidin-4-yl)pyrazolo[1,5-a]pyridin-2-amine]
23 | 0.9 | CCN1CC[C@@H]1COc1cnn(C(F)F)c1-c1ccn2nc(Nc3cc(C)c(=O)n(C)n3)cc2c1 [Example 484, 6-[[5-[2-(difluoromethyl)-4-[[(2R)-1-ethylazetidin-2-yl]methoxy]pyrazol-3-yl]pyrazolo[1,5-a]pyridin-2-yl]amino]-2,4-dimethyl-pyridazin-3-one]
24 | 2.7 | Cn1ncc(OC[C@H]2CCN2CC2CC2)c1-c1ccn2nc(NC(=O)C3CC3)cc2c1 [Example 247, N-[5-[4-[[(2R)-1-(cyclopropylmethyl)azetidin-2-yl]methoxy]-2-methyl-pyrazol-3-yl]pyrazolo[1,5-a]pyridin-2-yl]cyclopropanecarboxamide]
25 | 24.7 | C[C@@H]1CNC[C@@H]1OCc1cnn(C)c1-c1ccn2nc(NC(=O)C3CC3)cc2c1 (single isomer, unassigned) [Example 196, (3*R, 4*R)—N-[5-[2-methyl-4-[(4-methylpyrrolidin-3-yl)oxymethyl]pyrazol-3-yl]pyrazolo[1,5-a]pyridin-2-yl]cyclopropanecarboxamide]
26 | 11.8 | Cn1ncc(OC[C@@H](O)c2ccccc2)c1-c1ccn2nc(NC(=O)C3CC3)cc2c1 [Example 27, N-[5-[4-[(2S)-2-hydroxy-2-phenyl-ethoxy]-2-methyl-pyrazol-3-yl]pyrazolo[1,5-a]pyridin-2-yl]cyclopropanecarboxamide]
27 | < 0.847 | CCN1CC[C@@H]1COc1cnn(C)c1-c1ccn2nc(Nc3cc(C)nc(C(F)F)n3)cc2c1 [Example 103, N-[2-(difluoromethyl)-6-methyl-pyrimidin-4-yl]-5-[4-[[(2R)-1-ethylazetidin-2-yl]methoxy]-2-methyl-pyrazol-3-yl]pyrazolo[1,5-a]pyridin-2-amine]
28 | 1.2 | Cc1ncc(Nc2cc3cc(-c4c(OC[C@H]5CCN5C)cnn4C)ccn3n2)nc1C [Example 23, N-(5,6-Dimethylpyrazin-2-yl)-5-[2-methyl-4-[[(2R)-1-methylazetidin-2-yl]methoxy]pyrazol-3-yl]pyrazolo[1,5-a]pyridin-2-amine]
29 | 2.9 | COc1nnc(Nc2cc3cc(-c4c(OC[C@H]5CCN5C)cnn4C(F)F)ccn3n2)cc1C [Example 97, 5-[2-(difluoromethyl)-4-[[(2R)-1-methylazetidin-2-yl]methoxy]pyrazol-3-yl]-N-(6-methoxy-5-methyl-pyridazin-3-yl)pyrazolo[1,5-a]pyridin-2-amine]
